# According to patent US20240228986A1, “ENGINEERED CELLS, ENZYMES, AND METHODS FOR PRODUCING CANNABINOIDS” (priority 2021, published 2024):
# Test system: MPT21 (SEQ ID NO: 22; chimera of MPT1 and MPT4) as fusion GPS1.1-F11-MPT21 (SEQ ID NO: 25), expressed in Yarrowia
# Assay: In vitro activity assay with microsomes of GPS1.1-F11-MPT21
# Assay type: biochemical
# Conditions: microsomes from Yarrowia sCL-SE-0128 + pCL-SE-0664; varying concentrations of OA and DVA; enzyme not purified to homogeneity
# Protocol: Yarrowia cells sCL-SE-0128 expressing the fusion of GPS1.1 with MPT4 (pCL-SE-0406) and MPT21 (pCL-SE-0664) were grown at 30 mL culture at 30 C for 2 days in YNB with 20% glucose. The cells were collected by centrifugation, washed with homogenization buffer (MAK340-1KT Sigma Aldrich) and were resuspended in 2 mL of homogenization buffer. The suspended cells were transferred to 5 mL tubes containing 1 mL of glass beads and were homogenized by shaking for 5 min at max speed in a shaker (Retsch MM400). The lysed cells were transferred to new tubes and microsomes were prepared as described in the kit (MAK340-1KT). Activity assays were performed using microsomes from both enzymes and varying concentrations of OA and DVA.
row,SMILES,Km
1,"CCCc1cc(O)cc(O)c1C(=O)O [DVA, divarinic acid]",62.2 µM
2,"CCCCCc1cc(O)cc(O)c1C(=O)O [OA, olivetolic acid]",20.9 µM
